These compounds were tested on Primary adult CD34+ human hematopoietic stem cells (HSCs) (assay: % CD34+ assay: HSC expansion screen, dose response). Settings: Homo sapiens, Hematopoietic stem cell; dose response 1 nM to 10 μM; total number and/or percent of CD34+ cells.
Type: cell-based
Procedure: Primary adult CD34^+ human hematopoietic stem cells (HSCs) are cultured and screened to identify compounds of the invention that facilitate HSC expansion. The cells are analyzed for the presence of the desired phenotype (CD34 expression). Compounds of the invention promote HSC expansion in a dose dependent manner.
Culture Medium: StemSpan SFEM medium is serum-free medium (StemCell Technologies, Vancouver, BC) supplemented with the following human recombinant cytokines: thrombopoietin, interleukin-6, Flt-3 ligand, and stem cell factor (all from R&D Systems, Minneapolis, Minn.), each at a final concentration of 50 ng/mL, with vehicle (DMSO) or a compound of the invention.
Human Cell Culture: Fresh human leukophoresed G-CSF mobilized peripheral blood from normal donors, CD34^+ cells from adult bone marrow and cryopreserved human cord blood CD34^+ cells are purchased from AllCells (Berkeley, Calif.). Human CD34^+ cells are enriched from leukophoresed G-CSF mobilized peripheral blood using magnetic cell sorting (MACS, Direct CD34 Progenitor Cell Isolation Kit, Miltenyi Biotec, Bergisch Gladbach, Germany) and cryopreserved. CD34^+ cell purity, checked by flow Cytometry, is higher than 90%. After thawing, the cell viability tested by trypan blue exclusion is higher than 70%. The thawed cells are centrifuged and resuspended with StemSpan medium before being aliquoted for immediate culture. Cells are plated at 10^4 cells/mL in a 384 well plate (Greiner Bio-One, Monroe, N.C.) with 50 μL of medium per well for 7 days. Every 7 days the cells are transferred to larger well plates and fresh medium is added to keep the cell density between 10^4 and 5×10^5 cells/mL. Cells were cultured at 37° C. in 5% CO2. For transplantation, cells were cultured in 75 cm^2 flasks before the cells were transplanted into mice. At a concentration of 1 micromolar, 4-(2-(2-(benzo[b]thiophen-3-yl)-9-isopropyl-9H-purin-6-ylamino)ethyl)phenol (compound 1, table 1; example 1), 4-(2-(2-(benzo[b]thiophen-3-yl)-9-sec-butyl-9H-purin-6-ylamino)ethyl)phenol (compound 2, table 1), and N-(2-(1H-indol-3-yl)ethyl)-2-(benzo[b]thiophen-3-yl)-9-isopropyl-9H-purin-6-amine (compound 9, table 1) each gives rise to a greater than 10-fold increase in the number of CD34^+ CD45RA^− cells derived from 1000 mPB CD34^+ HSCs after 21 days compared to vehicle. Compounds of the invention were assayed in a dose response format (1 nM to 10 μM) to determine the effective concentration that produced the desired effect in 50% of the cells (EC50).

Row | EC50 [nM] | Structure (SMILES)
1 | 2700 | CC(C)n1cnc2c(NCCN3CCNC3=O)nc(-c3csc4ccccc34)nc21 [Example 81]
2 | 7900 | CC(C)n1cnc2c(NCCc3n[nH]c(N)n3)nc(-c3csc4ccccc34)nc21 [Example 82]
3 | 7100 | CC(C)n1cnc2c(NCCNc3ccccn3)nc(-c3csc4ccccc34)nc21 [Example 83]
4 | 5400 | CC(C)n1cnc2c(NCCCc3cn[nH]c3)nc(-c3csc4ccccc34)nc21 [Example 84]
5 | 2600 | Cc1n[nH]c(C)c1CCCNc1nc(-c2csc3ccccc23)nc2c1ncn2C(C)C [Example 88]
6 | 1400 | CC(C)n1cnc2c(NCCNC(N)=O)nc(-c3csc4ccccc34)nc21 [Example 89]
7 | 3300 | CC(C)n1cnc2c(NCc3ccc4[nH]c(=O)[nH]c4c3)nc(-c3csc4ccccc34)nc21 [Example 90]
8 | 29 | CC(C)n1cnc2c(NCCc3c[nH]c4ccccc34)nc(-c3cccnc3)nc21 [Example 91]
9 | 7100 | CC(C)n1cnc2c(NCCc3ccc(NS(C)(=O)=O)cc3)nc(-c3cccnc3)nc21 [Example 92]
10 | 520 | Oc1ccc(CCNc2nc(-c3cccnc3)nc3c2ncn3[C@@H]2CCOC2)cc1 [Example 93R]
11 | 1100 | Oc1ccc(CCNc2nc(-c3cccnc3)nc3c2ncn3[C@H]2CCOC2)cc1 [Example 93S]
12 | 970 | Oc1ccc(CCNc2nc(-c3cccnc3)nc3c2ncn3C2COC2)cc1 [Example 94]
13 | 2300 | CC(Cc1ccc(O)cc1)Nc1nc(-c2cccnc2)nc2c1ncn2C(C)C (stereo not drawn) [Example 95]
14 | 8200 | CC(C)n1cnc2c(NCCc3n[nH]c4ccccc34)nc(-c3cccnc3)nc21 [Example 98]
15 | 7500 | CC(C)n1cnc2c(N(C)CCc3ccc(O)cc3)nc(-c3cccnc3)nc21 [Example 99]
16 | 540 | CC(CO)n1cnc2c(NCCc3ccc(O)cc3)nc(-c3cccnc3)nc21 (stereo not drawn) [Example 113]
17 | 1100 | CC(C)n1cnc2c(NCCc3ccc(OS(N)(=O)=O)cc3)nc(-c3cccnc3)nc21 [Example 114]
18 | 450 | CC(C)n1cnc2c(NCCc3ccc(O)cc3)nc(-c3cccnc3F)nc21 [Example 118]
19 | 1400 | CC(C)n1cnc2c(NCCc3ccc(O)cc3)nc(-c3cccn3C)nc21 [Example 119]
20 | 1400 | CC(C)n1cnc2c(NCCc3ccc(O)cc3)nc(-c3cncs3)nc21 [Example 120]
21 | 86 | CC(C)n1cnc2c(NCCc3ccc(O)cc3)nc(-n3cnc4ccccc43)nc21 [Example 121]
22 | 66 | Cc1nccn1-c1nc(NCCc2ccc(O)cc2)c2ncn(C(C)C)c2n1 [Example 123, 4-(2-(9-Isopropyl-2-(2-methyl-1H-imidazol-1-yl)-9H-purin-6-ylamino)ethyl)phenol]
23 | 3 | CCC(C)n1cnc2c(NCCc3ccc(O)c(C)c3)nc(-c3cncc(C#N)c3)nc21 (stereo not drawn) [Example 124]
24 | 5000 | Cc1cc(CCNc2nc(-c3cccnc3)nc3c2ncn3C(C)C)n[nH]1 [Example 126]

The next lines start with the compound.

Row | Structure (SMILES) | EC50 [nM]
25 | CCC(C)n1cnc2c(NCCc3ccc(O)cc3)nc(-c3csc4ccccc34)nc21 (stereo not drawn) [Example 2, 4-(2-(2-(benzo[b]thiophen-3-yl)-9-sec-butyl-9H-purin-6-ylamino)ethyl)phenol] | 30
26 | Oc1ccc(CCNc2nc(-c3csc4ccccc34)nc3c2ncn3C(c2ccccc2)c2ccccc2)cc1 [Example 3] | 150
27 | Oc1ccc(CCNc2nc(-c3csc4ccccc34)nc3c2ncn3C2CCCOC2)cc1 (stereo not drawn) [Example 4] | 1490
28 | Oc1ccc(CCNc2nc(-c3csc4ccccc34)nc3c2ncn3Cc2ccc(C(F)(F)F)cc2)cc1 [Example 5] | 2080
29 | CC(C)Cn1cnc2c(NCCc3ccc(O)cc3)nc(-c3csc4ccccc34)nc21 [Example 6] | 2530
30 | Cn1cnc2c(NCCc3ccc(O)cc3)nc(-c3csc4ccccc34)nc21 [Example 7] | 7200
31 | Cc1ccc(Cn2cnc3c(NCCc4ccc(O)cc4)nc(-c4csc5ccccc45)nc32)cc1 [Example 8] | 6030
32 | CC(C)n1cnc2c(NCCc3c[nH]c4ccccc34)nc(-c3csc4ccccc34)nc21 [Example 9, N-(2-(1H-indol-3-yl)ethyl)-2-(benzo[b]thiophen-3-yl)-9-isopropyl-9H-purin-6-amine] | 20
33 | CC(C)n1cnc2c(NCCc3ccsc3)nc(-c3csc4ccccc34)nc21 [Example 10] | 1380
34 | CC(C)n1cnc2c(NCCc3cccc(O)c3)nc(-c3csc4ccccc34)nc21 [Example 11] | 1450
35 | CC(C)n1cnc2c(NCCc3ccc(F)cc3)nc(-c3csc4ccccc34)nc21 [Example 12] | 1760
36 | CC(C)n1cnc2c(NCCc3ccc(N)cc3)nc(-c3csc4ccccc34)nc21 [Example 13] | 5750
37 | CC(C)n1cnc2c(NCCc3ccc(O)cc3)nc(-c3cncnc3)nc21 [Example 14] | 170
38 | CC(C)n1cnc2c(NCCc3ccc(O)cc3)nc(-c3cccnc3)nc21 [Example 15] | 190
39 | CC(C)n1cnc2c(NCCc3ccc(O)cc3)nc(-c3ccccc3)nc21 [Example 16] | 460
40 | CC(C)n1cnc2c(NCCc3ccc(O)cc3)nc(-c3ccsc3)nc21 [Example 17] | 970
41 | CC(C)n1cnc2c(NCCc3ccc(O)cc3)nc(-c3ccoc3)nc21 [Example 18] | 3900
42 | Fc1ccc(CCNc2nc(-c3csc4ccccc34)nc3c2ncn3-c2ccccc2)cc1 [Example 19] | 1100
43 | CC(C)n1c(-c2ccc(-c3ccccc3)cc2)nc2c(NCc3ccccc3)ncnc21 [Example 20] | 7800
44 | CCCCCCCC(C)n1cnc2c(NCCc3ccc(O)cc3)nc(-c3csc4ccccc34)nc21 (stereo not drawn) [Example 21] | 130
45 | CCC(C)n1cnc2c(NCCc3c[nH]c4ccccc34)nc(-c3csc4ccccc34)nc21 (stereo not drawn) [Example 23] | 19
46 | CC(C)n1cnc2c(NCCc3ccc(O)cc3)nc(-c3ccncc3)nc21 [Example 31] | 660
47 | CCOC(=O)c1cncc(-c2nc(NCCc3ccc(O)cc3)c3ncn(C(C)C)c3n2)c1 [Example 32] | 5600

Row | Structure (SMILES) | EC50 [nM]
48 | COc1cncc(-c2nc(NCCc3ccc(O)cc3)c3ncn(C(C)C)c3n2)c1 [Example 33] | 270
49 | CC(C)n1cnc2c(NCCc3ccc(O)cc3)nc(-c3ccc(F)nc3)nc21 [Example 34] | 160
50 | Cc1ccncc1-c1nc(NCCc2ccc(O)cc2)c2ncn(C(C)C)c2n1 [Example 35] | 340
51 | CC(C)n1cnc2c(NCCc3ccc(O)cc3)nc(-c3cncc(C#N)c3)nc21 [Example 37] | 24
52 | CC(C)n1cnc2c(NCCc3ccc(O)cc3)nc(N3CCCC3)nc21 [Example 38] | 1600
53 | CC(C)n1cnc2c(NCCc3ccc(O)cc3)nc(-n3ccnc3)nc21 [Example 40] | 260
54 | CC(C)n1cnc2c(NCCc3ccc(O)cc3)nc(-c3ccnnc3)nc21 [Example 42] | 640
55 | CC(C)n1cnc2c(NCCc3ccc(O)cc3)nc(-c3cnccn3)nc21 [Example 43] | 2400
56 | CC(C)n1cnc2c(NCCc3ccc(O)cc3)nc(-c3ccccn3)nc21 [Example 44] | 1700
57 | Cc1cncc(-c2nc(NCCc3ccc(O)cc3)c3ncn(C(C)C)c3n2)c1 [Example 45] | 63
58 | CC(C)n1cnc2c(NCCc3ccc(O)cc3)nc(-c3cncc(S(C)(=O)=O)c3)nc21 [Example 46] | 650
59 | CC(C)n1cnc2c(NCCc3ccc(O)cc3)nc(-c3cnccc3Cl)nc21 [Example 48] | 510
60 | CC(C)n1cnc2c(NCCc3ccc(O)cc3)nc(-c3cncc(F)c3)nc21 [Example 50] | 34
61 | CC(C)n1cnc2c(NCCc3ccc(O)cc3)nc(-c3cccs3)nc21 [Example 55] | 1300
62 | Cc1cscc1-c1nc(NCCc2ccc(O)cc2)c2ncn(C(C)C)c2n1 [Example 58] | 240
63 | COc1cc(CCNc2nc(-c3cccnc3)nc3c2ncn3C(C)C)ccc1O [Example 60] | 3200
64 | COc1ccc2c(CCNc3nc(-c4cccnc4)nc4c3ncn4C(C)C)c[nH]c2c1 [Example 61] | 130
65 | Cc1ccc2[nH]cc(CCNc3nc(-c4cccnc4)nc4c3ncn4C(C)C)c2c1 [Example 62] | 720
66 | CC(C)n1cnc2c(NCCN3CCNC3=O)nc(-c3cccnc3)nc21 [Example 70] | 2700
67 | CC(C)n1cnc2c(NCCNc3ccccn3)nc(-c3cccnc3)nc21 [Example 72] | 6300
68 | CC(C)n1cnc2c(NCCCc3cn[nH]c3)nc(-c3cccnc3)nc21 [Example 73] | 8200
69 | Cc1n[nH]c(SCCNc2nc(-c3cccnc3)nc3c2ncn3C(C)C)n1 [Example 76] | 6000
